Common to all, as to assay type: cell-based
Data set [1] relates to neonatal rat ventricular myocytes (NRVMs). Put plainly: LC3-II/I ratio (Western) in NRVMs treated with bafilomycin A or chloroquine, canonical versus non-canonical autophagy. As to conditions: BafA 100 nM, 1 h; si-Wipi1 and si-scramble transfected NRVMs.
Data set [2] shares this test system. Put plainly: RT-qPCR of transcript expression in siRNA-transfected NRVMs with or without aldosterone. Here is the method:
Total RNA were extracted from human and mouse tissues and cultured neonatal rat ventricular myocytes (NRVMs) using the Tissue RNA Purification Kit (Norgen Biotek) and the TRIzol reagent (Invitrogen) respectively, according to the manufacturer's instructions. RNA was quantified with the NanoDrop-2000c instrument (Thermo Scientific), and cDNA synthesis was performed with iScript reverse transcription Supermix (BioRad). Quantitative RT-PCR was performed on a CFX96 thermal cycler using the iTac Universal SYBR green Supermix (Biorad) and specific primers. Gene expression was normalized to Rps13, and relative mRNA expression was quantified using the ΔΔCt method. For data robustness and reproducibility, target genes were also normalized to Rps15.
(§1) Neonatal Sprague-Dawley rats were euthanized by decapitation within the first 24 h after birth and beating hearts heart fragments were rinsed in 1×PBS without pen/strep and digested in 0.1% Trypsin solution in 1×PBS (0.8 ml of 0.1% Trypsin solution per heart) for 15 min at 37° C. The supernatant was collected and the remaining tissue was further digested repeatedly for a total of 10 times, with serial collection of supernatant. Digestion was stopped on ice with 10% FBS, and cells were collected from pooled supernatant by centrifugation at 1500 rpm for 5 min at room temperature. The cell pellet was resuspended in an adequate volume of complete medium. Cells were counted and plated in 10 cm dishes for ˜1 h at 37° C., 5% CO2 at a density of 10×10^6 cells per plate (pre-plating). During this pre-plating step, non-myocytes including fibroblasts adhere to the plate, while NRVMs remain in suspension. The supernatant cells were subsequently seeded on protamine sulfate coated dishes (10^5 cells/cm^2) and were left to attach for 12 h. NRVM primary cultures were maintained in MEM medium supplemented with 10% FBS, penicillin (100 units/ml)/streptomycin (100 μg/ml) (Gibco-Fisher Scientific). 1-β-D-Arabinofuranosyl-cytosine (AraC 20 μM, Calbiochem-Sigma) was also added to the culture medium to inhibit fibroblast proliferation.
At 24 h following isolation, NRVMs were transfected with siRNAs using the Dharmafect #1 transfection reagent according to the manufacturers protocol (Dharmacon). NRVMs were plated at a density of ˜10^5 cells/cm^2 and transfected with 10 nM of a pool of either non-targeting siRNA (siRNA-scramble control) or siRNAs against the rat Wipi1 gene (siRNA-Wipi1). All siRNAs were ON-TARGETplus SMARTpool siRNAs (Dharmacon). Following a 24 h transfection period, the medium was changed to serum-free DMEM:F12 supplemented with penicillin (100 units/ml)/streptomycin (100 μg/ml). […] Serum-free DMEM:F12 culture medium without any aldosterone was used as a comparative control to neurohormone activation.
In general terms: Quantitative PCR measures a nucleic acid by following its amplification.

For data set [3] the test system is unchanged. Put plainly: MTT assay of cell viability. Here is the method: To assess NRVM viability, the Vybrant MTT cell proliferation assay kit was used (Molecular probes). Initially, NRVM were seeded on 96-well plates at ˜3×10^4 cells/well (˜10^5 cells/cm^2, the same density as in other assays) and were treated identically as in the siRNA transfection assays (including transfection, serum starvation and neurohormonal stimulation). In addition, increasing number of cells ranging from 2×10^4 to 14×10^4 were used to create a standard curve and to calculate the linearity between absorbance at 595 nm and cell number. Prior to labelling with MTT, the medium was removed and 100 μl of fresh medium was added to each well. The same amount of medium (100 μl) without cells was used as negative control (blank). The cells and the negative control were labeled with 10 μl of 12 mM MTT/well and were incubated at 37° C. for 4 h. Subsequently, 100 μl of SDS-HCL solution was added to each well, mixed thoroughly and incubated for 4 h at 37° C. Finally, the absorbance at 595 nm was measured on a plate reader and the % of cell viability was calculated using the formula:
% of viability=(A595sample/A595reference)×100
For orientation: Tetrazolium dyes change colour on reduction, which living cells bring about.

Data set [4] has the same test system. Put plainly: MitoSOX Red analysis of mitochondrial superoxide level. Particulars: Aldo 1 μM 48 h, si-scramble control NRVMs. Here is the method: Neonatal rat ventricular myocytes (NRVMs) were transfected with scramble or Wipi1-specific siRNAs and then stimulated with aldosterone (Aldo, 1 μM, 48 h) or hydrogen peroxide (H2O2, 50 μM, 2 h).
(§2) At 24 h following isolation, NRVMs were transfected with siRNAs using the Dharmafect #1 transfection reagent according to the manufacturers protocol (Dharmacon). NRVMs were plated at a density of ˜10^5 cells/cm^2 and transfected with 10 nM of a pool of either non-targeting siRNA (siRNA-scramble control) or siRNAs against the rat Wipi1 gene (siRNA-Wipi1). All siRNAs were ON-TARGETplus SMARTpool siRNAs (Dharmacon). Following a 24 h transfection period, the medium was changed to serum-free DMEM:F12 supplemented with penicillin (100 units/ml)/streptomycin (100 μg/ml). After ˜12 h of serum-starvation, the cells were incubated with aldosterone […] in serum-free DMEM:F12 culture medium for 48 h at 37° C., 5% […]. Serum-free DMEM:F12 culture medium without any aldosterone was used as a comparative control to neurohormone activation.
Mitochondrial superoxide level was monitored with the MitoSOX™ Red mitochondrial superoxide indicator for live-cell imaging (Molecular Probes). […] The red fluorescent signal was measured with ImageJ software and normalized to the brightfield signal.

Data set [5] has the same test system. The data set is described as follows: Western blot of protein expression in siRNA-transfected NRVMs with or without aldosterone. Here is the method:
Total proteins were extracted from tissues and NRVMs with the T-PER lysis buffer (Thermo Scientific) supplemented with the Halt Protease and Phosphatase Inhibitor Cocktail (Thermo Scientific). Protein extraction from mouse tissues was performed using a BeadBug Benchtop Homogenizer and zirconium beads (Sigma). Protein quantification was performed with the BCA reagent (Pierce). Total protein samples were resolved on NuPAGE 4-12% Bis-Tris gradient gels (Invitrogen) and transferred to 0.2 μm Nitrocellulose membranes (Biorad) for immunoblotting. Membranes were stained with the LI-COR Revert Total Protein Stain kit and analyzed as per manufacturer's instructions. Membranes were blocked and then incubated with primary antibodies as detailed in Table 2 at 4° C. overnight. Membranes were then washed and incubated with the appropriate LI-COR secondary antibody. Membranes were imaged using the ODYSSEY-Classic infrared system from LI-COR. Protein expression was normalized to total protein.
as §1, §2

The mark [6] stands for this setting: NRVMs, si-Wipi1 vs si-scramble, with or without aldosterone.
[7] abbreviates: aldosterone 48 h, si-scramble control NRVMs, serum starved.

As for `CO/C1=C\C(C)=C\[C@@H](C)[C@@H](O)[C@@H](C)C/C(C)=C/C=C/[C@H](OC)[C@@H]([C@@H](C)[C@@H](O)[C@H](C)[C@@]2(O)C[C@@H](O)[C@H](C)[C@@H](C(C)C)O2)OC1=O` [BafA, bafilomycin A], the LC3-II/I ratio entry in data set [1] is listed as “increased”.

Regarding `C[C@]12CCC(=O)C=C1CC[C@@H]1[C@@H]2[C@@H](O)C[C@]2(C=O)[C@@H](C(=O)CO)CC[C@@H]12` [aldosterone], in data set [2] (setting [6]), the “Snap47 or Prdx5 transcript expression” value is given as “Neither silencing Wipi1 nor stimulation with aldosterone affected”. Further, the Map4 transcript levels result in data set [2] (aldosterone stimulation, in either si-Wipi1 or si-scramble NRVMs) is reported as “did not affect”. Also, the Hspb6 transcript expression result in data set [2] (aldosterone, both si-Wipi1 and si-scramble NRVMs) was “stimulated”. In data set [2] (si-scramble control NRVMs, Aldo 1 μM 48 h), the “expression of Nppa, Nppb, Acta1, and Myh7 (fetal gene program)” value was “significantly increased”. For the same compound, in data set [3], the cell viability result is given as “Neither aldosterone stimulation nor silencing Wipi1 negatively impacted”. Besides, the mitochondrial superoxide levels result in data set [4] was “increased”. Also, in data set [5] (setting [6]), the Hspb6 protein expression result was “consistent with transcript data” and the “Snap47 or Prdx5 protein expression” value is recorded as “Neither silencing Wipi1 nor stimulation with aldosterone affected”. Also, the Ser16-HSPB6 phosphorylation result in data set [5] (aldosterone 48 h, si-scramble NRVMs, serum starved) was “did decrease”. In data set [5] (setting [7]), the BECN1 expression entry is “did not affect” and the LC3-lipidation result is given as “did not affect”. The Map4 protein expression result in data set [5] (aldosterone, si-scramble control NRVMs) is recorded as “did induce”.

For the origin of these results see patent US20210275646A1, “PHARMACOLOGIC TREATMENT FOR RIGHT VENTRICULAR FAILURE” (The Trustees of Columbia University in the City of New York, priority 2018, published 2021).
